Results reported in article PMC9706920, “Aryloxypropanolamine targets amyloid aggregates and reverses Alzheimer-like phenotypes in Alzheimer mouse models” (Alzheimer's Research & Therapy, 2022).
pIC50: −log10 of the molar value.

Key:
CYP 1A2 = target: T1, CYP 1A2 (Homo sapiens, UniProt P05177); assay: CYP450 inhibition assay, 1A2; type: in vitro ADME; settings: YIAD002 10 μM, human liver microsomes; weak or no inhibition; read-out: CYP 1A2 inhibition, IC50 (inhibition criteria)
T1 construct: […]; from tissue; host or cells: human liver microsomes
T1 sequence (P05177 1-516): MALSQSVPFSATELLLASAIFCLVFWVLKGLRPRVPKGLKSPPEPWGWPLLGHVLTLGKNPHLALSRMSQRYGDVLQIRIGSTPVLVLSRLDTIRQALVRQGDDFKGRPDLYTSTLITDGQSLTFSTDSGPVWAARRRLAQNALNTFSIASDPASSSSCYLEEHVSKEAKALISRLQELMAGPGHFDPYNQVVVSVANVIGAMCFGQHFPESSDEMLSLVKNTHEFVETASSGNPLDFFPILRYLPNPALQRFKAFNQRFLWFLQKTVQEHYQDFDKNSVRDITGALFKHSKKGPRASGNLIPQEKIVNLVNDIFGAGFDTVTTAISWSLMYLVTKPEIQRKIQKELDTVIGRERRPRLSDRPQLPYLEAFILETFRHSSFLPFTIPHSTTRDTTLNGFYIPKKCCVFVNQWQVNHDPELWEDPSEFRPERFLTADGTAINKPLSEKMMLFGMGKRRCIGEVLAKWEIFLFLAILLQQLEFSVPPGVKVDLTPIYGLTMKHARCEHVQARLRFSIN
Protocol: (§1) Incubation mixtures for Cytochrome P450s (CYPs) inhibition assay contained human liver microsomes (0.25 mg/ml), 0.1 M phosphate buffer (pH 7.4), 10 μM of YIAD002, and an enzyme substrate cocktail (phenacetin 50 μM, diclofenac 10 μM, S-mephenytoin 100 μM, dextromethorphan 5 μM, and midazolam 2.5 μM). The mixture was pre-incubated at 37°C for 5 min and 1 mM NAPDH was added to initiate reactions. After 15 min of incubation, acetonitrile with terfenadine was added to stop reactions and microsomal solutions were centrifuged at 14,000 rpm at 4°C for 5 min. For LC-MS/MS analysis, supernatants were injected on a Kinetex C18 column (2.1 × 100 mm, 2.6 μm particle size, Phenomenex, USA). The composition of the mobile phase was 0.1% formic acid in water (A) and 0.1% formic acid in acetonitrile (B).

CYP 2C19 = target: T2, CYP 2C19 (Homo sapiens, UniProt P33261); assay: CYP450 inhibition assay, 2C19; type: in vitro ADME; settings: YIAD002 10 μM, human liver microsomes; weak or no inhibition; read-out: CYP 2C19 inhibition, IC50 (inhibition criteria)
T2 construct: contained human liver microsomes (0.25 mg/ml); from tissue; host or cells: human liver microsomes
Protocol: as §1

Aβ(pE3-42) aggregates = target: T3, Aβ(pE3-42) aggregates (Homo sapiens, UniProt P05067); assay: ThT fluorescence Aβ(pE3-42) disaggregation assay; type: biochemical; settings: Fig. 4D
T3 construct: Aβ(pE3-42), p[…]; made in house; host or cells: chemical synthesis (Fmoc solid phase peptide synthesis)
Protocol: ThT fluorescence was used to assess the in vitro inhibition of Aβ(1–42) and disaggregation of Aβ(1–42), Aβ(1–40), Aβ(pE3-42), recombinant tau K18, and tau repeats R1, R2, R3, R4 by YIAD compounds. In house synthetic Aβ(1–42) was dissolved in DMSO (1 mM, 100% DMSO) and diluted to 20-fold in deionized water to make 50 μM Aβ(1–42) stocks (5% DMSO). YIAD compounds were first dissolved in DMSO (100 mM, 100% DMSO) and serially diluted with deionized water to make YIAD stocks with concentrations of 1, 10, 100, and 1000 μM (10% DMSO). For the Aβ(1–42) inhibition assay, monomeric Aβ(1–42) stocks and YIAD stocks were co-incubated at 37°C for 3 days. For Aβ(1–42) disaggregation assay, monomeric Aβ(1–42) stocks were preincubated at 37°C for three days to form Aβ(1–42) aggregates, and subsequently, YIAD stocks were added for an additional 3 days. For Aβ(1-40) disaggregation assays, Aβ(1–40) (50 μM, 5% DMSO) was preincubated at 37°C for 3 days to induce aggregation, and co-incubated with YIAD001 and YIAD002 for an additional 3 days. […] Prior to fluorescence intensity measurement, ThT solution (5 μM) was prepared by dissolving ThT, purchased from Sigma-Aldrich (MO, USA) in 50 mM glycine buffer (pH 8.5). To quantify the effect of inhibition and disaggregation, 25 μL of all samples and 75 μL of ThT solution were loaded into a half-area 96-well black plate in triplicate.

Plasma stability, human = type: in vitro ADME; settings: 10 μM, 37°C, vs 0 min
Protocol: To assess the plasma stability of YIAD002, YIAD002 stock was dissolved at a concentration of […] in DMSO. 5 μL of YIAD002 stock was added to 195 μL of human plasma or 195 μL of rat plasma and incubated at 37°C for the following time points: 0, 30, and 120 min. At the end of incubation, acetonitrile with chlorpropamide was added to stop reactions. The solutions were centrifuged at 14,000 rpm at 4°C for 5 min and the supernatant was analyzed with LC-MS/MS. High performance liquid chromatography was carried out on a Kinetex C18 column (2.1 × 100 mm, 2.6 μm particle size, Phenomenex, USA). The composition of the mobile phase was 0.1% formic acid in water (A) and 0.1% formic acid in acetonitrile (B).

[1] = Microsomal stability, mouse; type: in vitro ADME; settings: 1 μM, 30 min, 37°C
Protocol: To evaluate the rate of drug metabolism, we tested YIAD002 stability in liver microsomes of human, rat, and mouse. Microsomal concentration was 0.5 mg/ml in 0.1 M phosphate buffer (pH 7.4). 1 μM of YIAD002 was added to microsome solutions and was prewarmed at 37°C for 5 min. NADPH-regenerating solution was added to microsomes and incubated at 37°C for 30 min. At the end of incubation, acetonitrile with chlorpropamide was added to stop reactions and microsomal solutions were centrifuged at 14,000 rpm at 4°C for 5 min. For LC-MS/MS analysis, supernatants were injected on a Kinetex C18 column (2.1 × 100 mm, 2.6 μm particle size, Phenomenex, USA). The composition of the mobile phase was 0.1% formic acid in water (A) and 0.1% formic acid in acetonitrile (B).

T2 sequence (P33261 whole entry): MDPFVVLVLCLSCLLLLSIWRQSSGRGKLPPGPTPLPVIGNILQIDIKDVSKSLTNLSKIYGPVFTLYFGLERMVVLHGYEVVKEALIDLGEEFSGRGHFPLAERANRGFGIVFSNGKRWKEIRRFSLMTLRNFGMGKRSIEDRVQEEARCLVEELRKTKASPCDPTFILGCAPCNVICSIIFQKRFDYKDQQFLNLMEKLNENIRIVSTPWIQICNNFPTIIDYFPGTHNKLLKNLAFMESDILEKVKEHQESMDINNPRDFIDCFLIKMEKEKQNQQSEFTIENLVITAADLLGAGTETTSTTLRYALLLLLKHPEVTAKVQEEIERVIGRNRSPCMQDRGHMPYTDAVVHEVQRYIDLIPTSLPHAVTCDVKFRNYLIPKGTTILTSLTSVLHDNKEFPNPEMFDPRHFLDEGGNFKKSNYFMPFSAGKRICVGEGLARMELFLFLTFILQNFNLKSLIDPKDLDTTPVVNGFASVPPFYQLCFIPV
T3 sequence (P05067 674-713): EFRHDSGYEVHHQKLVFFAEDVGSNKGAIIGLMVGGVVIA

With `CCC(C)(C)c1ccc(OCC(O)CN2CCCC2)c(C(C)(C)CC)c1.Cl` (stereo not drawn) [YIAD002, 1-(3-(2,4-Di-tert-pentylphenoxy)-2-hydroxypropyl)pyrrolidin-1-ium chloride] the pIC50 (CYP 1A2) was < 5.00, the pIC50 (CYP 2C19) was < 5.00 and the “Dissociative activity against Aβ(pE3-42) aggregates” value (Aβ(pE3-42) aggregates) was “dissociative activity”. For the same compound, the “Compound remaining in human plasma” value (Plasma stability, human; 30 min) was 96.3%, the “Compound remaining in human plasma” value (Plasma stability, human; 120 min) was 92.6% and the “Remaining compound in mouse microsomes” value [1] was 14.2%.
